Test results published in patent publication US8173645B2 (Takeda San Diego, Inc., priority 2007, dated 2012).

Target: T1, glucokinase (GK), residues 12-465 of the human enzyme (Homo sapiens, UniProt P35557)
T1 construct: I.D. No. 1 corresponds to residues 12-465 of glucokinase; made in house; host or cells: E. coli DH10b-Tlr
T1 sequence (P35557 with tags, fused parts or gaps isoform P35557-2): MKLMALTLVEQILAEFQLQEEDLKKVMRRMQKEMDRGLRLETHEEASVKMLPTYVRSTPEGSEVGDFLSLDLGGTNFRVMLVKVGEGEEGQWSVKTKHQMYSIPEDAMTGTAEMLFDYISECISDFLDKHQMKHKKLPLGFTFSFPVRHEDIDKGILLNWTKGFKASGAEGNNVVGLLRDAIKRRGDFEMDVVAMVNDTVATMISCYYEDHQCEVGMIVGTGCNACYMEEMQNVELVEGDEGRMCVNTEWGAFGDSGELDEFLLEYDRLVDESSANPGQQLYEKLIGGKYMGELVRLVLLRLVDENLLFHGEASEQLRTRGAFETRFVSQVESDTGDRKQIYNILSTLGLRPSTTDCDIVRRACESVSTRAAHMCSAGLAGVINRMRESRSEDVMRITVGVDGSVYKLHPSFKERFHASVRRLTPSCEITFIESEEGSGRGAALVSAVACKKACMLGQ
Assay: Enzymatic glucokinase activity assay (KinaseGlo luminescence, ATP consumption)
Format: biochemical
Details: 5 μM ATP, 5 mM Glucose; for EC50: GK activation, Kact = concentration giving 50% of the maximal increase in GK activity, read-out: pKact; for Emax: calculated maximal gain in GK enzyme activity at a saturating concentration of the compound, read-out: % ACTmax
Procedure, shortened: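 C-terminally FLAG-tagged enzyme expressed in E. coli and purified. Reaction: 25 mM Hepes pH 7.2, 25 mM NaCl, 10 mM MgCl2, 0.01% Brij35, 1 mM DTT, 5 μM ATP, 5 mM glucose, 2% DMSO, 60 min at room temperature. Remaining ATP was read by luciferase luminescence; pKact and % ACTmax came from nonlinear fits of 11-point 2-fold dilutions.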

O=C(Nc1nccs1)[C@H](CC1CCCCC1)N1CCN(C(=O)NCc2ccc(Cl)cc2)CC1=O [Example 138, (S)-N-(4-chlorobenzyl)-4-(3-cyclohexyl-1-oxo-1-(thiazol-2-ylamino)propan-2-yl)-3-oxopiperazine-1-carboxamide]
EC50: ≥ 3160 nM | Emax: ≤ 74%

O=C(Nc1nccs1)[C@H](CC1CCCCC1)N1CCN(S(=O)(=O)c2cc(F)c(Cl)cc2F)CC1=O [Example 190, (S)-2-(4-(4-chloro-2,5-difluorophenylsulfonyl)-2-oxopiperazin-1-yl)-3-cyclohexyl-N-(thiazol-2-yl)propanamide]
EC50: 794 to 1260 nM | Emax: 74.1 to 97%

Cc1c(S(=O)(=O)N2CCN([C@@H](CC3CCCCC3)C(=O)Nc3nccs3)C(=O)C2)cnn1-c1ccccc1 [Example 163, (S)-3-cyclohexyl-2-(4-(5-methyl-1-phenyl-1H-pyrazol-4-ylsulfonyl)-2-oxopiperazin-1-yl)-N-(thiazol-2-yl)propanamide]
EC50: 1580 to 2510 nM | Emax: ≤ 74%

O=C(Nc1nccs1)[C@H](CC1CCCCC1)N1CCN(S(=O)(=O)C2CCCC2)CC1=O [Example 113, (S)-3-cyclohexyl-2-(4-(cyclopentylsulfonyl)-2-oxopiperazin-1-yl-N-thiazol-2-yl)propanamide]
EC50: ≤ 631 nM | Emax: ≥ 119%

O=C(Nc1nccs1)[C@H](CC1CCCCC1)N1CCN(S(=O)(=O)N2CCCC2)CC1=O [Example 229, (S)-3-cyclohexyl-2-(2-oxo-4-(pyrrolidin-1-ylsulfonyl)piperazin-1-yl)-N-(thiazol-2-yl)propanamide]
EC50: ≤ 631 nM | Emax: 108 to 119%

O=C(Nc1nccs1)[C@H](CC1CCCCC1)N1CCN(S(=O)(=O)c2ccc(Br)c(Br)c2)CC1=O [Example 231, (S)-3-cyclohexyl-2-(4-(3,4-dibromophenylsulfonyl)-2-oxopiperazin-1-yl)-N-(thiazol-2-yl)propanamide]
EC50: 794 to 1260 nM | Emax: ≤ 74%

O=C(Nc1nccs1)[C@H](CC1CCCCC1)N1CCN(S(=O)(=O)c2cc(Cl)ccc2Cl)CC1=O [Example 56, (S)-3-cyclohexyl-2-(4-(2,5-dichlorophenylsulfonyl)-2-oxopiperazin-1-yl)-N-(thiazol-2-yl)propanamide]
EC50: 794 to 1260 nM | Emax: 108 to 119%

COc1ccc2nc(NC(=O)C(CC3CCOCC3)N3CCN(S(=O)(=O)C4CCCC4)CC3=O)sc2n1 (stereo not drawn) [Example 29, 2-(4-(cyclopentylsulfonyl)-2-oxopiperazin-1-yl)-N-(5-methoxythiazolo[5,4-b]pyridin-2-yl)-3-(tetrahydro-2H-pyran-4-yl)propanamide]
EC50: 794 to 1260 nM | Emax: 108 to 119%

O=C(Nc1nccs1)[C@H](CC1CCCCC1)N1CCN(S(=O)(=O)c2ccccc2)CC1=O [Example 79, (S)-3-cyclohexyl-2-(2-oxo-4-(phenylsulfonyl)piperazin-1-yl)-N-(thiazol-2-yl)propanamide]
EC50: ≤ 631 nM | Emax: 97.1 to 107%

N#Cc1cccc(S(=O)(=O)N2CCN([C@@H](CC3CCCCC3)C(=O)Nc3nccs3)C(=O)C2)c1 [Example 62, (S)-2-(4-(3-cyanophenylsulfonyl)-2-oxopiperazin-1-yl)-3-cyclohexyl-N-(thiazol-2-yl)propanamide]
EC50: 794 to 1260 nM | Emax: 108 to 119%

O=C(Nc1nccs1)[C@H](CC1CCCCC1)N1CCN(S(=O)(=O)c2ccc(F)cc2F)CC1=O [Example 58, (S)-3-cyclohexyl-2-(4-(2,4-difluorophenylsulfonyl)-2-oxopiperazin-1-yl)-N-(thiazol-2-yl)propanamide]
EC50: 794 to 1260 nM | Emax: 108 to 119%

O=C(Nc1nccs1)[C@H](CC1CCCCC1)N1CCN(C(=S)Nc2cccc(Cl)c2)CC1=O [Example 81, (S)-2-(4-(3-chlorophenylcarbamothioyl)-2-oxopiperazin-1-yl)-3-cyclohexyl-N-(thiazol-2-yl)propanamide]
EC50: 1580 to 2510 nM | Emax: 97.1 to 107%

O=C(Nc1ncc(Cl)s1)[C@H](CC1CCOCC1)N1CCN(S(=O)(=O)c2cccs2)CC1=O [Example 37, (S)-N-(5-chlorothiazol-2-yl)-2-(2-oxo-4-(thiophen-2-ylsulfonyl)piperazin-1-yl)-3-(tetrahydro-2H-pyran-4-yl)propanamide]
EC50: ≤ 631 nM | Emax: 74.1 to 97%

O=C(Nc1nccs1)[C@H](CC1CCCCC1)N1CCN(C(=S)NC2CCCCC2)CC1=O [Example 114, (S)-3-cyclohexyl-2-(4-(cyclohexylcarbamothioyl)-2-oxopiperazin-1-yl)-N-(thiazol-2-yl)propanamide]
EC50: 1580 to 2510 nM | Emax: 97.1 to 107%

Cc1ccc2sc(S(=O)(=O)N3CCN([C@@H](CC4CCCCC4)C(=O)Nc4nccs4)C(=O)C3)cc2c1 [Example 107, (S)-3-cyclohexyl-2-(4-(5-methylbenzo[b]thiophen-2-ylsulfonyl)-2-oxopiperazin-1-yl)-N-(thiazol-2-yl)propanamide]
EC50: 794 to 1260 nM | Emax: ≤ 74%

O=C(O)c1cccc(S(=O)(=O)N2CCN([C@@H](CC3CCCCC3)C(=O)Nc3nccs3)C(=O)C2)c1 [Example 49, (S)-3-(4-(3-cyclohexyl-1-oxo-1-(thiazol-2-ylamino)propan-2-yl)-3-oxopiperazin-1-ylsulfonyl)benzoic acid]
EC50: ≥ 3160 nM | Emax: 74.1 to 97%

O=C(Nc1nccs1)[C@H](CC1CCCCC1)N1CCN(S(=O)(=O)c2cccc([N+](=O)[O-])c2)CC1=O [Example 156, (S)-3-cyclohexyl-2-(4-(3-nitrophenylsulfonyl)-2-oxopiperazin-1-yl)-N-(thiazol-2-yl)propanamide]
EC50: 1580 to 2510 nM | Emax: 97.1 to 107%

O=C(c1cccc(S(=O)(=O)N2CCN([C@@H](CC3CCCCC3)C(=O)Nc3nccs3)C(=O)C2)c1)c1ccccn1 [Example 178, (S)-3-cyclohexyl-2-(2-oxo-4-(3-picolinoylphenylsulfonyl)piperazin-1-yl)-N-(thiazol-2-yl)propanamide]
EC50: 794 to 1260 nM | Emax: 74.1 to 97%

O=C(Nc1nccs1)[C@H](CC1CCCCC1)N1CCN(S(=O)(=O)CCc2ccc(Cl)cc2)CC1=O [Example 98, (S)-2-(4-(4-chlorophenethylsulfonyl)-2-oxopiperazin-1-yl)-3-cyclohexyl-N-(thiazol-2-yl)propanamide]
EC50: 794 to 1260 nM | Emax: ≤ 74%

Cc1ccc(S(=O)(=O)N2CCN([C@@H](CC3CCCCC3)C(=O)Nc3nccs3)C(=O)C2)c(F)c1 [Example 222, (S)-3-cyclohexyl-2-(4-(2-fluoro-4-methylphenylsulfonyl)-2-oxopiperazin-1-yl)-N-(thiazol-2-yl)propanamide]
EC50: ≤ 631 nM | Emax: 108 to 119%

O=C(Nc1nccs1)[C@H](CC1CCCCC1)N1CCN(S(=O)(=O)c2c(Cl)nc3sccn23)CC1=O [Example 164, (S)-2-(4-(6-chloroimidazo[2,1-b]thiazol-5-ylsulfonyl)-2-oxopiperazin-1-yl)-3-cyclohexyl-N-(thiazol-2-yl)propanamide]
EC50: ≥ 3160 nM | Emax: 108 to 119%

Cc1c(Cl)cc(F)cc1S(=O)(=O)N1CCN([C@@H](CC2CCCCC2)C(=O)Nc2nccs2)C(=O)C1 [Example 187, (S)-2-(4-(3-chloro-5-fluoro-2-methylphenylsulfonyl)-2-oxopiperazin-1-yl)-3-cyclohexyl-N-(thiazol-2-yl)propanamide]
EC50: ≤ 631 nM | Emax: 74.1 to 97%

Cc1cc(S(=O)(=O)N2CCN([C@@H](CC3CCCCC3)C(=O)Nc3nccs3)C(=O)C2)c(C)o1 [Example 181, (S)-3-cyclohexyl-2-(4-(2,5-dimethylfuran-3-ylsulfonyl)-2-oxopiperazin-1-yl)-N-(thiazol-2-yl)propanamide]
EC50: ≤ 631 nM | Emax: 108 to 119%

O=C(Nc1ncc(Cl)s1)[C@@H](CC1CCOCC1)N1CCN(S(=O)(=O)C2CC2)CC1=O [Example 25, (R)-N-(5-chlorothiazol-2-yl)-2-(4-(cyclopropylsulfonyl)-2-oxopiperazin-1-yl)-3-(tetrahydro-2H-pyran-4-yl)propanamide]
EC50: ≥ 3160 nM | Emax: ≤ 74%

O=C(Nc1nccs1)[C@H](CC1CCCCC1)N1CCN(C(=S)Nc2ccc(C(F)(F)F)cc2)CC1=O [Example 85, (S)-3-cyclohexyl-2-(2-oxo-4-(4-(trifluoromethyl)phenylcarbamothioyl)piperazin-1-yl)-N-(thiazol-2-yl)propanamide]
EC50: ≥ 3160 nM | Emax: ≤ 74%

O=C(Nc1nccs1)[C@H](CC1CCCCC1)N1CCN(S(=O)(=O)c2cccc(Cl)c2)CC1=O [Example 67, (S)-2-(4-(3-chlorophenylsulfonyl)-2-oxopiperazin-1-yl)-3-cyclohexyl-N-(thiazol-2-yl)propanamide]
EC50: ≤ 631 nM | Emax: 108 to 119%

O=C(Nc1nccs1)[C@H](CC1CCCCC1)N1CCN(S(=O)(=O)c2ccc3ncsc3c2)CC1=O [Example 97, (S)-2-(4-(benzo[d]thiazol-6-ylsulfonyl)-2-oxopiperazin-1-yl)-3-cyclohexyl-N-(thiazol-2-yl)propanamide]
EC50: 794 to 1260 nM | Emax: 97.1 to 107%
